In ChEMBL document CHEMBL1141575, “Preparation and in vitro biological evaluation of tetrapyrrole ethanolamide derivatives as potential anticancer agents” (Bioorg Med Chem Lett, 2008):

Legend:
K562 [1] = assay: Survival of human K562 cells at 0.1 uM under deem light after 96 hrs by MTT assay relative to control; assay type: functional; conditions: K562, 96 h, read-out: Survival
K562 [2] = assay: Survival of human K562 cells at 15.7 uM under deem light after 96 hrs by MTT assay relative to control; assay type: functional; conditions: K562, 96 h, read-out: Survival
[3] = Survival of human MDA-MB cells at 10 uM under deem light after 96 hrs by MTT assay relative to control; assay type: functional; conditions: read-out: Survival
[4] = Survival of human MDA-MB cells at 1 uM under deem light after 96 hrs by MTT assay relative to control; assay type: functional; conditions: read-out: Survival
[5] = Survival of human H209 cells at 0.1 uM under deem light after 96 hrs by MTT assay relative to control; assay type: functional; conditions: NCI-H209, 96 h, read-out: Survival
NCI-H69 [6] = assay: Survival of human H69 cells at 1 uM under deem light after 96 hrs by MTT assay relative to control; assay type: functional; conditions: NCI-H69, 96 h, read-out: Survival
[7] = Survival of human 2780.9S cells at 100 uM under deem light after 96 hrs by MTT assay relative to control; assay type: functional; conditions: read-out: Survival
[8] = Survival of human H209 cells at 15.7 uM under deem light after 96 hrs by MTT assay relative to control; assay type: functional; conditions: NCI-H209, 96 h, read-out: Survival
[9] = Photohemolysis in human RBC in absence of light; assay type: ADME, cell-based; conditions: erythrocyte
[10] = Cytotoxicity against human MDA-MB cells under deem light after 96 hrs by MTT assay; assay type: functional, cell-based
HeLa [11] = assay: Survival of human HeLa cells at 15.7 uM under deem light after 96 hrs by MTT assay relative to control; assay type: functional; conditions: read-out: Survival
K562 [12] = assay: Survival of human K562 cells at 50 uM under deem light after 96 hrs by MTT assay relative to control; assay type: functional; conditions: K562, 96 h, read-out: Survival
[13] = Survival of human 2780.9S cells at 0.1 uM under deem light after 96 hrs by MTT assay relative to control; assay type: functional; conditions: read-out: Survival
Raji [14] = assay: Cytotoxicity against human Raji cells under deem light after 96 hrs by MTT assay; assay type: functional, cell-based
[15] = Photohemolysis in human RBC assessed as concentration required to 50% hemolysis under light exposure for 10 mins; assay type: ADME, cell-based, Erythrocyte; conditions: human red blood cells, read-out: Activity
HeLa [16] = assay: Survival of human HeLa cells at 0.1 uM under deem light after 96 hrs by MTT assay relative to control; assay type: functional; conditions: read-out: Survival
[17] = Survival of human MDA-MB cells at 15.7 uM under deem light after 96 hrs by MTT assay relative to control; assay type: functional; conditions: read-out: Survival
K562 [18] = assay: Cytotoxicity against human K562 cells under deem light after 96 hrs by MTT assay; assay type: functional, cell-based; conditions: K562, 96 h
Daudi = assay: Cytotoxicity against human Daudi cells under deem light after 96 hrs by MTT assay; assay type: functional, cell-based
[19] = Survival of human H209 cells at 100 uM under deem light after 96 hrs by MTT assay relative to control; assay type: functional; conditions: NCI-H209, 96 h, read-out: Survival
NCI-H69 [20] = assay: Survival of human H69 cells at 50 uM under deem light after 96 hrs by MTT assay relative to control; assay type: functional; conditions: NCI-H69, 96 h, read-out: Survival
Raji [21] = assay: Survival of human Raji cells at 1 uM under deem light after 96 hrs by MTT assay relative to control; assay type: functional; conditions: read-out: Survival
[22] = Survival of human 2780.9S cells at 15.7 uM under deem light after 96 hrs by MTT assay relative to control; assay type: functional; conditions: read-out: Survival
Raji [23] = assay: Survival of human Raji cells at 15.7 uM under deem light after 96 hrs by MTT assay relative to control; assay type: functional; conditions: read-out: Survival
NCI-H69 [24] = assay: Survival of human H69 cells at 100 uM under deem light after 96 hrs by MTT assay relative to control; assay type: functional; conditions: NCI-H69, 96 h, read-out: Survival
SiHa [25] = assay: Survival of human SIHA cells at 1 uM under deem light after 96 hrs by MTT assay relative to control; assay type: functional; conditions: read-out: Survival
HeLa [26] = assay: Survival of human HeLa cells at 50 uM under deem light after 96 hrs by MTT assay relative to control; assay type: functional; conditions: read-out: Survival
K562 [27] = assay: Survival of human K562 cells at 100 uM under deem light after 96 hrs by MTT assay relative to control; assay type: functional; conditions: K562, 96 h, read-out: Survival
Raji [28] = assay: Survival of human Raji cells at 100 uM under deem light after 96 hrs by MTT assay relative to control; assay type: functional; conditions: read-out: Survival
[29] = Photohemolysis in human RBC assessed as concentration required to 50% hemolysis under light exposure for 5 mins; assay type: ADME, cell-based, Erythrocyte; conditions: human red blood cells, read-out: Activity
K562 [30] = assay: Survival of human K562 cells at 1 uM under deem light after 96 hrs by MTT assay relative to control; assay type: functional; conditions: K562, 96 h, read-out: Survival
NCI-H69 [31] = assay: Survival of human H69 cells at 15.7 uM under deem light after 96 hrs by MTT assay relative to control; assay type: functional; conditions: NCI-H69, 96 h, read-out: Survival
[32] = Survival of human MDA-MB cells at 50 uM under deem light after 96 hrs by MTT assay relative to control; assay type: functional; conditions: read-out: Survival
Raji [33] = assay: Survival of human Raji cells at 0.1 uM under deem light after 96 hrs by MTT assay relative to control; assay type: functional; conditions: read-out: Survival
SiHa [34] = assay: Survival of human SIHA cells at 50 uM under deem light after 96 hrs by MTT assay relative to control; assay type: functional; conditions: read-out: Survival
[35] = Survival of human H209 cells at 1 uM under deem light after 96 hrs by MTT assay relative to control; assay type: functional; conditions: NCI-H209, 96 h, read-out: Survival
SiHa [36] = assay: Cytotoxicity against human SIHA cells under deem light after 96 hrs by MTT assay; assay type: functional, cell-based
Raji [37] = assay: Survival of human Raji cells at 50 uM under deem light after 96 hrs by MTT assay relative to control; assay type: functional; conditions: read-out: Survival
[38] = Survival of human H209 cells at 50 uM under deem light after 96 hrs by MTT assay relative to control; assay type: functional; conditions: NCI-H209, 96 h, read-out: Survival
HeLa [39] = assay: Cytotoxicity against human HeLa cells under deem light after 96 hrs by MTT assay; assay type: functional, cell-based
[40] = Survival of human MDA-MB cells at 100 uM under deem light after 96 hrs by MTT assay relative to control; assay type: functional; conditions: read-out: Survival
[41] = Survival of human 2780.9S cells at 50 uM under deem light after 96 hrs by MTT assay relative to control; assay type: functional; conditions: read-out: Survival
NCI-H69 [42] = assay: Cytotoxicity against human H69 cells under deem light after 96 hrs by MTT assay; assay type: functional, cell-based; conditions: NCI-H69, 96 h
[43] = Survival of human 2780.9S cells at 1 uM under deem light after 96 hrs by MTT assay relative to control; assay type: functional; conditions: read-out: Survival
[44] = Cytotoxicity against human 2780.9S cells under deem light after 96 hrs by MTT assay; assay type: functional, cell-based
SiHa [45] = assay: Survival of human SIHA cells at 100 uM under deem light after 96 hrs by MTT assay relative to control; assay type: functional; conditions: read-out: Survival
[46] = Photohemolysis in human RBC at 125 nM under exposure to light for 10 mins; assay type: ADME, cell-based, Erythrocyte; conditions: human red blood cells, read-out: Activity
[47] = Survival of human MDA-MB cells at 0.1 uM under deem light after 96 hrs by MTT assay relative to control; assay type: functional; conditions: read-out: Survival
HeLa [48] = assay: Survival of human HeLa cells at 1 uM under deem light after 96 hrs by MTT assay relative to control; assay type: functional; conditions: read-out: Survival
NCI-H69 [49] = assay: Survival of human H69 cells at 0.1 uM under deem light after 96 hrs by MTT assay relative to control; assay type: functional; conditions: NCI-H69, 96 h, read-out: Survival
HeLa [50] = assay: Survival of human HeLa cells at 100 uM under deem light after 96 hrs by MTT assay relative to control; assay type: functional; conditions: read-out: Survival

CCCOC(C)C1=C(C)c2cc3[nH]c(cc4nc(cc5[nH]c(cc1n2)c(C)c5CCC(=O)NCCO)C(CCC(=O)NCCO)=C4C)c(C)c3C(C)OCCC (stereo unspecified) [HEMATOPORPHYRIN PROPYLETHER ETHANOLAMIDE]
viability at 0.1 µM (K562 [1]): 72.9%
viability at 15.7 µM (K562 [2]): 28.5%
viability at 10 µM [3]: 104%
viability at 1 µM [4]: 112%
viability at 0.1 µM [5]: 97.8%
viability at 1 µM (NCI-H69 [6]): 97%
viability at 100 µM [7]: 6.5%
viability at 15.7 µM [8]: 16.1%
Activity [9]: Non-toxic
IC50 [10]: 12 µM
viability at 15.7 µM (HeLa [11]): 7.8%
viability at 50 µM (K562 [12]): 5.7%
viability at 0.1 µM [13]: 106%
IC50 (Raji [14]): 21 µM
HC50 at 10 min [15]: 210 nM
viability at 0.1 µM (HeLa [16]): 99.6%
viability at 15.7 µM [17]: 24.3%
IC50 (K562 [18]): 22 µM
IC50 (Daudi): 22 µM
viability at 100 µM [19]: 9.8%
viability at 50 µM (NCI-H69 [20]): 16.1%
viability at 1 µM (Raji [21]): 99.5%
viability at 15.7 µM [22]: 19.3%
viability at 15.7 µM (Raji [23]): 23.6%
viability at 100 µM (NCI-H69 [24]): 14.4%
viability at 1 µM (SiHa [25]): 100%
viability at 50 µM (HeLa [26]): 7.4%
viability at 100 µM (K562 [27]): 6.67%
viability at 100 µM (Raji [28]): 5.4%
HC50 at 5 min [29]: 90 nM
viability at 1 µM (K562 [30]): 84.7%
viability at 15.7 µM (NCI-H69 [31]): 17.1%
viability at 50 µM [32]: 7.4%
viability at 0.1 µM (Raji [33]): 96.1%
viability at 50 µM (SiHa [34]): 2.2%
viability at 1 µM [35]: 105%
IC50 (SiHa [36]): 44 µM
viability at 50 µM (Raji [37]): 5.9%
viability at 50 µM [38]: 8.6%
IC50 (HeLa [39]): 21 µM
viability at 100 µM [40]: 5.2%
viability at 50 µM [41]: 12.3%
IC50 (NCI-H69 [42]): 22 µM
viability at 1 µM [43]: 100%
IC50 [44]: 16 µM
viability at 100 µM (SiHa [45]): 6.7%
hemolysis at 10 min, 0.125 µM [46]: 100%
viability at 0.1 µM [47]: 137%
viability at 1 µM (HeLa [48]): 119%
viability at 0.1 µM (NCI-H69 [49]): 95.5%
viability at 100 µM (HeLa [50]): 10.5%
